Measurements as given in US20100247931A1, “TREATING SURFACES TO ENHANCE BIO-COMPATIBILITY” (priority 2001, published 2010).
Several values for one entry are separate records, joined by “and”; a condition that tells them apart may be missing. Identical values can stand only once. Counter-ions that a name gives are not always drawn. Values belong to the compound of their own block, whether it stands above or below them.

Key:
Assay type in all cases: physicochemical
[1] = Colchicine release from polymer coating into phosphate buffered saline (UV/Vis absorbance at 350 nm)
Excerpt: The stent was placed in a tube containing 4 mls of Phosphate Buffered Saline solution (prepared from tablets supplied by Sigma-Aldrich Chemical Co by dissolving 1 tablet in 200 mls of deionised water) and agitated by rolling. The saline solution was sampled at intervals and its colchicine content determined by monitoring its absorbance at 350 nm using UV/Vis Spectrometry. A calibration plot for various concentrations of Colchicine (4 to 99 micrograms) in solution against the solution's absorbance at 350 nm was constructed to convert sample's release absorbance into drug release values in micrograms per stent. The graph of Colchicine released against release time is plotted in FIG. 3.
1. Stainless steel strips approx 6-8 mm in width were cleaned in IPA with ultrasound for 15 mins, followed by drying at 130° C. for 30 mins 2. The plate was functionalised as in Example 2. 3. The amino group on the functionalised steel was then reacted with the ispcyano group of 3-(triethoxysilyl)isocyanate to form a urea linkage, yielding triethoxysilyl groups on the surface. This was performed by adding the stainless steel plate to a solution of 3-(triethoxysilyl) isocyanate (9 ml) in anhydrous toluene (219 ml). […] The colchicine was released by placing the strips in 4 mls of phosphate buffered saline (PBS) solution, placing on a spiromix and measuring the absorbance at 350 nm over a period of 100 hours 15. […]

[2] = Eosin Y coupling to amine groups of TMSPEA functionalised surface and release (absorbance at 517 nm)
Description: Once rinsing had been completed, the sample was placed in a 50 ml sample tube and 4 mls of 0.1 M NaOH was pipetted into it, the sample tube was placed on the Spiramix and it was rolled for—5 minutes. 20 mls of deionised water was then pipetted into the solution and the absorbance of the resulting solution was recorded at 517 nm using a spectrophotometer. The absorbance value was then converted into an amount of eosin Y attached to the sample by using a calibration graph of absorbance readings for known amounts of eosin Y sodium salt. The absorbance reading for the release solution was 0.83 at 517 nm corresponding to 205 μg of eosinY.
All six samples were placed in sample tubes (100*16 mm R. B. tubes clarified polypropylene, Jencons PLC) and rolled on the Spiramix (Denley Spiramix 5) in approximately 4-6 mls of a 0.4% aqueous solution of eosin Y sodium salt (Sigma Aldrich chemical co) for approximately 1 hour.
Once rinsing had been completed, two samples from the ethanol rinsed and unrinse, d sets were placed in 50 ml sample tubes and 4 mls of 0.1 M NaOH was pipetted into each. The sample tubes were placed on the Spiramix and rolled for—5 minutes. 20 mls of deionised water was then pipetted into each sample and the absorbance of the resulting solution was recorded at 517 nm using a Jenway 6305 W/V is spectrophotometer. The values recorded were then converted into amounts of eosin Y attached to the samples by using a calibration graph of absorbance readings for known amounts of eosin Y sodium salt.
After drying for 2 hours at 50° C. the sample was stained with Eosin Y solution, visually examined and then released as detailed in the Eosin Y Coupling section of Example 6.

[3] = Mitoxantrone coupling and release from coated device (absorbance of release solution at 660 nm)
[4] = as above; remark: listed apart in the source
Description: A 0.01% solution of mitoxantrone (Sigma Aldrich Chemical Co) was made up in deionised water. The samples are each immersed in 4 mls of the solution and left rolling on a Spiramix (Denley Spiramix 5) for—17 hours (Samples placed in 100*16 mm R. B. tube clarified polypropylene supplied by Jencons PLC.). After this time they were rinsed in deionised water until there was no evidence of the mitoxantrone being removed in the water. 4 mls of phosphate buffered saline solution (PBS) was then pipetted into a clean sample tube and the sample added. The samples were left in this solution for 1 hour on the Spiramix, after which absorbances were recorded by spectrophotometer at 660 nm. The solutions were then transferred back into the appropriate sample tube and 5 drops of 1M hydrochloric acid added from a dropping pipette. The samples were left for 10 minutes rolling on the Spiramix, after which an absorbance reading was recorded. Further readings were obtained after 1 hour or more to give a value for complete release of mitoxantrone. The absorbances recorded for the release solutions at 660 nm gave an indication of the amount of mitoxantrone attached to the carboxymethylcellulose coating on each sample. By use of a calibration curve plotting known concentrations of mitoxantrone solutions against the absorbance of the solution at 660 nm, the mitoxantrone concentration of the release solution was determined and from this the amount of mitoxantrone attached to each device. An absorbance of 0.09 at 660 nm was obtained for the 1 hour release in phosphate buffered saline solution, and an absorbance of 0.17 for the complete release of Mitoxantrone. This equates to approximately 31 micrograms of mitoxantrone attached to the stent.

[5] = Example 2: stent coupled with poly(acrylic acid) partial sodium salt, Mw 2000
[6] = Example 9: heat exchange tubes coupled with polyacrylic acid sodium salt, Mw ca. 30,000

SMILES: COc1cc2c(c(OC)c1OC)-c1ccc(OC)c(=O)cc1[C@@H](NC(C)=O)CC2 [colchicine]
Release of drug into phosphate buffered saline solution ([1]; Coating of poly(vinyl butyral-co-vinyl alcohol-co-vinyl acetate) and colchicine without poly(ethylene glycol)): does not release the drug into phosphate buffered saline solution
Total amount of drug released after sonication in 2-propanol ([1]; Example 14: strip coated with poly(vinyl butyral-co-vinyl alcohol-co-vinyl acetate) + poly(ethylene glycol) + colchicine, after 100 hours in PBS): 320 u. g

Eosin Y attached to the sample ([2]; Example 6: TMSPEA functionalised tube (toluene, 30 minutes), calibration graph): 205 µg
Absorbance of release solution at 517 nm ([2]; Example 6: TMSPEA functionalised tube (toluene, 30 minutes), released in 0.1 M NaOH): 0.83
Absorbance of release solution at 517 nm ([2]; Example 15: tube functionalised with TMSPEA in tetrahydrofuran instead of toluene): 0.19
SMILES: O=C1OC2(c3ccccc31)c1cc(Br)c(O)c(Br)c1Oc1c2cc(Br)c(O)c1Br [eosin Y, eosin Y sodium salt]

SMILES: O=C1c2c(O)ccc(O)c2C(=O)c2c(NCCNCCO)ccc(NCCNCCO)c21 [mitoxantrone]
Absorbance at 660 nm, released 10 minutes in PBS with 5 drops 1 M HCl [3, 5]: 0.037
Mitoxantrone attached to the stent [3, 5]: 7 micrograms
Mitoxantrone attached to the heparin coated devices (complete release values) ([3]; Example 3: heparin coupled stainless steel heat exchange tubes): 31 micrograms and 36 micrograms
Mitoxantrone attachment of released stent ([3]; Example 7: commercially available stent, heparin/EDC Reaction Solution 1 of Example 6): 9 micrograms
Absorbance at 660 nm, complete release of mitoxantrone [3, 6]: 0.33
Mitoxantrone corresponding to complete release absorbance [3, 6]: 60 micrograms
Absorbance at 660 nm, complete release of mitoxantrone ([4]; Example 1: CMC coupled stent, PBS + 1M HCl): 0.17
Mitoxantrone attached to the stent ([4]; Example 1: CMC coupled stent, from calibration curve): approximately 31 micrograms
Absorbance at 660 nm, 1 hour release in phosphate buffered saline solution ([4]; Example 1: stainless steel stent, TMSPEA functionalised, carboxymethylcellulose coupled): 0.09
